Our source for the melting point values is a melting point compilation (Tetko et al.; mined from patent text by program, amines drawn as free bases though some values may be those of a salt).

Some results are limits rather than exact numbers.

In turn, `CCCCCCCCCCCCNC(=O)c1cc(-c2cccc(C(F)(F)F)c2)c(OCC(=O)O)c(-c2cccc(C(F)(F)F)c2)c1` showed a melting point of 154 to 158 °C.

Turning to `COc1ccc2c(CN3CCC[C@H]3C(=O)O)cc3cc4c(cc3c2c1)OCO4`, the melting point was 145 to 146 °C. In turn, `CC(C)COc1ccccc1-c1ncc(C(N)=O)c(=O)[nH]1` registered a melting point of 230 to 231 °C.

In the case of `CC(=O)c1cccc(Nc2c3ccccc3nc3occc23)c1`, the melting point was in the range of 158 to 159 °C. For `COc1ccc(-c2cn(-c3ccc(C(F)(F)F)cc3F)nn2)cc1` the value was 152 to 154 °C; for `CC[C@H](C)[C@@H]1NC(=S)c2ccccc2/C1=C/C(=O)OC`, 193 to 196 °C. On to `CCOC(=O)Cc1ccc(-c2nc(COc3ccc(COc4nn(-c5ccccc5)cc4/C=C/c4coc(C(C)(C)C)n4)cc3OC)c(C)o2)cc1`, for which the melting point was 126 to 129 °C. `O=C(N[C@H]1CC[C@H](CCN2CCN(c3nccc4c3OCC4)CC2)CC1)c1ccnc2ccccc12` returned a melting point of 222 °C. Compound `O=C1CCC2=C1C(c1ccc(Cl)c(Cl)c1)C1=C(CCS1)N2` (centres undefined) came in with a melting point of over 260 °C. The value for `FC(F)(c1ccccc1)C(F)(F)c1cccc(Br)c1` was 72 to 75 °C; that for `CCCCCCCCCCCCCCCCCCOc1cccc(NCC(=O)OCc2ccccc2)c1` was 55 to 60 °C; that for `CCOC(=O)C1CCN(Cc2c[nH]c3cccc(F)c23)CC1` was 96 to 105 °C. `Cc1ccc(CC#N)c(OCc2ccc(OCc3nc(-c4ccccc4)oc3C)cc2)n1` showed a melting point of 122 to 123 °C.

`CCCOc1ccc(C2CCCN3CCS(=O)(=O)N=C23)cc1` (centres undefined) yielded a melting point of 169 to 170 °C. Regarding `Clc1ccc(OCc2ccccc2)cn1`, the melting point is under 50 °C. The compound `NS(=O)(=O)Oc1ccc(-c2ccccc2)cc1` displayed a melting point of 166 to 168 °C. Consider `Cc1ccc(Cc2cnc(NCCCN(C)c3ncccc3C)[nH]c2=O)cn1`, for which the melting point was in the range of 83 to 85 °C. `Nc1nnc(SCC(=O)C23CC4CC(CC(C4)C2)C3)s1` returned a melting point of 198 to 199 °C. Turning to `CCN(CC)CCNc1ccc(N2CCOC2=O)cc1[N+](=O)[O-]`, the melting point is 124 °C. `O=C(N[C@H]1CCOC1=O)OCc1ccccc1` registered a melting point of 129 to 130 °C. On to `O=C1NC(=O)C(c2ccc(OCCC3Oc4ccccc4N(Cc4cccc(Cl)c4)C3=O)cc2)S1` (centres undefined), for which the melting point was in the range of 70 to 72 °C. For the compound `Cc1cc(C)c2c(c1)OS(=O)(=O)C(=Cc1ccc(N(C)C)cc1)C2=O`, the melting point lay in the range of 214 to 217 °C. `COCCOc1ccccc1OCC(O)CN1C(C)CCCC1C` (centres undefined): the melting point fell in the range of 92 to 94 °C.

`O=C(CCN1CCOCC1)NCc1ccc2c(c1)Cc1c(-c3ccsc3)n[nH]c1-2`: the melting point is 205 to 207 °C. `O=C(Nc1cccc2c(Sc3ncc[nH]3)c(Br)cnc12)c1c(Cl)cccc1Cl` registered a melting point of 249 to 251 °C.

`COCOc1ccc(C=O)c(Oc2ncc(C(F)(F)F)cc2Cl)c1` yielded a melting point of 93.9 to 94 °C. As to `C/C=C/c1nnc(N2N=C(c3ccc([N+](=O)[O-])c(C)c3)c3cc4c(cc3C[C@H]2C)OCO4)s1`, the melting point lay in the range of 232 to 237 °C.

`CC(C)(SCc1cc2cc(C(F)(F)F)ccc2n1S(=O)(=O)c1ccccc1)C(=O)O` had a melting point of 90 °C. For `CCOC(=O)C(CC(=O)c1cccc(Cl)c1)(NC(C)=O)C(=O)OCC`, the melting point is 84 to 86 °C. In turn, `CC(C(=O)O)c1ccc2c(c1)C(=O)c1cc(Cl)ccc1CS2` (centres undefined) registered a melting point of 128 to 131 °C. Compound `CS(=O)(=O)c1ccc2ncn(/C=C/C(=O)O)c(=O)c2c1` registered a melting point of 284 to 290 °C. `O=C1c2ccccc2C(=O)C1(CCN1CCC(c2noc3cc(F)ccc23)CC1)c1ccccc1` gave a melting point of 149 to 150 °C. Regarding `c1ccc2oc(SSCCSSc3nc4ccccc4o3)nc2c1`, the melting point lay within 124 to 125 °C. In the case of `COc1ccc2c(c1)CC(CCCNCCCSc1nnc(-c3ccccc3)n1C)CC2` (centres undefined), the melting point lay within 92 to 95 °C. In turn, `O=Cc1cn(C(c2ccccc2)(c2ccccc2)c2ccccc2)c(F)n1` displayed a melting point of 177 to 179 °C. For `CC1(C2CCCC2)Cc2cc(OCCBr)c(Cl)c(Cl)c2C1=O` (centres undefined), the melting point is 124 to 125 °C. As to `COc1ccc(C=C2C(=O)N(C3=NCCS3)c3ccccc32)cc1`, the melting point was in the range of 164 to 167 °C. As for `N#Cc1ncn2c(C(F)(F)F)cc(-c3ccc(Cl)cc3)nc12`, the melting point came to 205 °C. With `COc1ccc(S(=O)(=O)n2c(CCC(=O)O)cc3cc(Cl)ccc32)cc1`, the melting point lay within 95 to 98 °C. Turning to `NC(=O)N(O)CC1CCCCC1`, the melting point was 143 to 144 °C. Consider `CN1CCN(c2cc3ccccc3c(=O)[nH]2)[C@@H](CO)C1`, for which the melting point was 169 to 171 °C. For `ClCCN1C2CCC1CC(c1ccc3ccccc3c1)C2` (centres undefined) the value was 84 to 88 °C.

For the compound `Cc1cccc(CCc2c(C(C)C)nc(C(C)C)c(CO)c2-c2ccc(F)cc2)c1`, the melting point fell in the range of 148 to 150 °C. Turning to `CCOC(=O)c1cn(Nc2ccc(F)cc2F)c2nc(Cl)c(F)cc2c1=O`, the melting point was in the range of 210 to 212 °C.

`COc1cc(C(F)(F)F)ccc1-c1ccc2c(c1)S(=O)(=O)NC(C1CCCCC1)N2` (centres undefined) returned a melting point of 255 to 257 °C. For `O=C(O)c1ccc(C(=O)NS(=O)(=O)c2ccccc2)cc1`, the melting point lay within 259 to 261 °C. Regarding `CC1CN(c2n[nH]c(-c3ccc(Cl)cc3)c2-c2ccncc2)CC(C)N1` (centres undefined), the melting point lay within 236 to 238 °C. On to `Cc1cc(O)c2c(C)nn(-c3ccccn3)c2n1`, for which the melting point lay in the range of 175 to 176 °C. For `CC1=CC(=O)C(=Cc2ccc(O)cc2O)O1` the value was 239 to 242 °C; for `Cc1cc(-n2ccnc2)c2cccc(OCc3c(Cl)ccc(S(=O)(=O)N4C[C@H](O)C[C@H]4C(=O)O)c3Cl)c2n1`, 140 °C.

`CNc1nc(Cl)cc(NS(=O)(=O)c2cccc(C(F)(F)F)c2)n1` gave a melting point of 190 to 193 °C. The compound `COc1ccc(-c2ccc(C#N)cc2)cc1C=O` registered a melting point of 146 to 147 °C. `CS(=O)(=O)c1ccc(CCN2CC=C(c3c[nH]c(-c4ccc(F)cc4)c3-c3ccncc3)CC2)cc1`: the melting point was 207 to 209 °C. Compound `Cc1nc2cc(Br)cc(Br)c2o1` returned a melting point of 122 to 124 °C. For the compound `CCNc1c(C(=O)OCC)c(C)nc(Cl)c1[N+](=O)[O-]`, the melting point fell in the range of 36 to 37 °C. The value for `O=C(O)c1ccc2oc(-c3ccc(Cl)c(Cl)c3)cc2c1` was over 260 °C; that for `CS(=O)(=O)c1ccc(-c2cnn(Cc3ccccc3)c(=O)c2-c2ccc(Cl)c(Cl)c2)cc1` was 161 to 163 °C. As for `Cc1ccc(C(=O)NC(NC(=NC#N)Nc2ccc(Cl)nc2)C(C)(Cl)Cl)cc1` (centres undefined), the melting point fell in the range of 198 to 200 °C. The value for `CC(C)[C@]1(CCc2ccc(O)cc2)CC(O)=C(Sc2sc3ccccc3c2C(C)(C)C)C(=O)O1` was 207 °C; that for `Cc1ccc(-c2ccc(C#N)cc2)cc1` was 107 to 109 °C.

The compound `CCCCc1ccc(CC(=O)c2ccccc2)cc1` had a melting point of 53 to 55 °C.

The compound `CC(C)n1c(=O)n(CC2CNCCO2)c2ccccc21` (centres undefined) showed a melting point of 95 °C.

In turn, `COc1ccc(OC)c(NC(=O)c2cc(Br)ccc2O)c1` displayed a melting point of 207 to 209 °C.

The compound `c1ccc(Cc2ccc(-c3ccccc3)[nH]2)cc1` returned a melting point of 82 to 84 °C. In the case of `Cc1ncccc1-c1ccc(OC2SCC(O)C(O)C2O)cn1` (centres undefined), the melting point lay in the range of 167 to 168 °C.

`Cc1cc2c(s1)c(=O)c(S(C)=O)cn2C` (centres undefined) displayed a melting point of 263 to 264 °C. Take `Cc1cccc(C2=CCN(CCCn3c(=O)[nH]c4cccc(C)c4c3=O)CC2)c1`: the melting point lay in the range of 155 to 160 °C. `Cc1cc(C)n2nc(SCc3ccccc3)c(C#N)c2n1` returned a melting point of 140 °C.

`CCOP(=O)(O)C(=Nc1ccc(-c2c[nH]cn2)cc1)NCCSC`: the melting point is 240 to 241 °C. In turn, `COc1ccc(N)c(C2Cc3ccccc3N2)c1` (centres undefined) returned a melting point of 120 to 123 °C. For `COC(=O)C(NC(C)=O)NC(=O)c1cc(Cl)cc(Cl)c1` (centres undefined) the value was 235 to 237 °C. As for `Clc1cc(Cl)c2c(CCBr)coc2c1`, the melting point worked out at 43 °C. For `Oc1ccccc1C=Nc1ccc(O)c2ccccc12` the value was 154 to 157 °C; for `CCC1(C2OC(C3OC(O)(CO)C(C)CC3C)CC2C)CCC(C2(C)CCC3(CC(O)C(C)C(C(C)C(OC)C(C)C(=O)O)O3)O2)O1` (centres undefined), 78 to 80 °C. For `CC1CCC(Nc2c(C#N)c3ccccc3n2C)=CC1=O` (centres undefined) the value was 194 to 195 °C; for `CC(C)(C)c1ccc(-c2cc(-c3ccccc3)c(-c3ccccc3)s2)cc1`, 108 to 112 °C. `CC1(C)CN=C2C(c3ccccc3)=[N+]([O-])c3cc(C(F)(F)F)ccc3N2C1`: the melting point lay within 225 to 227 °C. The compound `COC(=O)c1ccc2cc(C(O)c3cccnc3)ccc2c1` (centres undefined) returned a melting point of 130 to 135 °C. Consider `C=CCOc1cc(-c2ncnc(C(F)F)c2Cl)c(F)cc1Cl`, for which the melting point is 69 to 71 °C.

Regarding `CC(=O)C1(COC(=O)Oc2ccccc2)CC2C=CC1CC2` (centres undefined), the melting point is 58 to 60 °C. Compound `CCOC(=O)C(=CNc1sc(Cl)cc1C(=O)OC)C(=O)OCC` returned a melting point of 89.5 to 90.5 °C.

As for `CC(Cl)C(=O)c1ccc2c(c1)CC(=O)N2` (centres undefined), the melting point was in the range of 157 to 158 °C. In the case of `O=C(CCN1C(=O)CSC1=S)Nc1ccccc1[N+](=O)[O-]`, the melting point fell in the range of 170 to 171 °C. The value for `CCN(C)c1nc2cc(NC(=O)c3c(C(=O)N4CCOCC4)cnn3C)ccn2n1` was 167 to 169 °C; that for `CC(C)(C)CCc1ccc(C(=O)NNS(=O)(=O)c2ccccc2)cc1` was 168 to 169 °C; that for `COCCn1nc(CC(C)C)c2cn(Cc3cccc4ccccc34)cc2c1=O` was 96 to 98 °C. `Cc1cccc(Nc2nc(N)ncc2S(=O)(=O)NC(C)(C)C)c1` gave a melting point of 174 to 178 °C.

In turn, `Cc1ccc(C(=O)c2cc(-c3ccc(S(C)(=O)=O)cc3)c(N3CCOCC3)s2)cc1` registered a melting point of 189 °C. `O=C(Nc1ccc(-n2nc(C(F)(F)F)cc2C(F)(F)F)cc1)c1cc([N+](=O)[O-])cc([N+](=O)[O-])c1`: the melting point is over 230 °C.
